Test results from ChEMBL document CHEMBL1129785, “Preparation and structure-activity relationship of novel P1/P1'-substituted cyclic urea-based human immunodeficiency virus type-1 protease inhibitors” (J Med Chem, 1996).
Several values for one entry are separate records, joined by “and”; a condition that tells them apart may be missing. Equal entries are not always repeated.

What was measured:
[1] = test system: Human immunodeficiency virus 1; assay: Antiviral potency was assessed by measuring the effect on accumulation of viral RNA transcripts 3 days after infection of MT-2 cells with HIV-1 RF; assay type: functional, MT2
[2] = target: Human immunodeficiency virus type 1 protease (Human immunodeficiency virus 1, UniProt Q72874); assay: Inhibitory activity against HIV protease
[3] = target: Human immunodeficiency virus type 1 protease (Human immunodeficiency virus 1) (UniProt Q72874); assay: Ability to increase whole-cell antiviral efficacy through better translation defined as the ratio between IC90 and Ki; assay type: functional
[4] = Human immunodeficiency virus 1, MT2, 72 h

| Structure (SMILES) | IC90 [1] [nM] | Ki [2] [nM] | IC90 [1, 4] [nM] | Ratio [3] |
| --- | --- | --- | --- | --- |
| Nc1ccc(C[C@@H]2[C@H](O)[C@@H](O)[C@@H](Cc3ccc(N)cc3)N(Cc3ccccc3)C(=O)N2Cc2ccccc2)cc1 [listing 1 of 3 here] | 1300 | 7.1 |  |  |
| CC(C)C[C@@H]1[C@H](O)[C@@H](O)[C@@H](CC(C)C)N(CC2CC2)C(=O)N1CC1CC1 |  | 86 | > 10000 |  |
| O=C1N(Cc2ccc(CO)cc2)[C@H](Cc2ccc(F)c(F)c2)[C@H](O)[C@@H](O)[C@@H](Cc2ccc(F)c(F)c2)N1Cc1ccc(CO)cc1 |  | 0.47 | 36 | 76 |
| O=C1N(Cc2ccccc2)[C@H](Cc2ccc(O)cc2)[C@H](O)[C@@H](O)[C@@H](Cc2ccc(O)cc2)N1Cc1ccccc1 |  | 1.1 | 185 | 170 |
| O=C1N(Cc2ccccc2)[C@H](Cc2ccccc2O)[C@H](O)[C@@H](O)[C@@H](Cc2ccccc2O)N1Cc1ccccc1 |  | 35 | 6500 | 185 |
| O=C1N(Cc2ccccc2)[C@H](Cc2ccccc2)[C@H](O)[C@@H](O)[C@@H](Cc2ccccc2)N1Cc1ccccc1 |  | 3.4 | 790 | 230 |
| O=C1N(Cc2ccccc2)[C@H](CCc2ccccc2)[C@H](O)[C@@H](O)[C@@H](CCc2ccccc2)N1Cc1ccccc1 |  | 320 | > 10000 |  |
| O=C1N(CC2CC2)[C@H](Cc2ccccc2)[C@H](O)[C@@H](O)[C@@H](Cc2ccccc2)N1CC1CC1 |  | 1.9 | 1840 | 970 |
| COc1cccc(C[C@@H]2[C@H](O)[C@@H](O)[C@@H](Cc3cccc(OC)c3)N(CC3CC3)C(=O)N2CC2CC2)c1 |  | 0.87 | 650 | 750 |
| O=C1N(Cc2ccccc2)[C@H](Cc2c[nH]c3ccccc23)[C@H](O)[C@@H](O)[C@@H](Cc2c[nH]c3ccccc23)N1Cc1ccccc1 |  | 580 | > 10000 |  |
| O=C1N(Cc2ccccc2)[C@H](Cc2ccc3c(c2)OCO3)[C@H](O)[C@@H](O)[C@@H](Cc2ccc3c(c2)OCO3)N1Cc1ccccc1 |  | 1.3 | 500 | 385 |
| CC(C)C[C@@H]1[C@H](O)[C@@H](O)[C@@H](CC(C)C)N(Cc2ccc(CO)cc2)C(=O)N1Cc1ccc(CO)cc1 |  | 38 | > 10000 |  |
| Nc1ccc(C[C@@H]2[C@H](O)[C@@H](O)[C@@H](Cc3ccc(N)cc3)N(Cc3ccccc3)C(=O)N2Cc2ccccc2)cc1 [listing 2 of 3 here] |  | 8.5 | 1400 |  |
| CSCC[C@@H]1[C@H](O)[C@@H](O)[C@@H](CCSC)N(Cc2ccc(CO)cc2)C(=O)N1Cc1ccc(CO)cc1 |  | 3900 | > 10000 |  |
| Nc1ccc(C[C@@H]2[C@H](O)[C@@H](O)[C@@H](Cc3ccc(N)cc3)N(Cc3ccccc3)C(=O)N2Cc2ccccc2)cc1 [listing 3 of 3 here] |  |  |  | 165 and 180 |
| CSCC[C@@H]1[C@H](O)[C@@H](O)[C@@H](CCSC)N(Cc2ccccc2)C(=O)N1Cc1ccccc1 |  | 1100 | > 10000 |  |
| O=C1N(Cc2ccc(CO)cc2)[C@H](CC2CCCCC2)[C@H](O)[C@@H](O)[C@@H](CC2CCCCC2)N1Cc1ccc(CO)cc1 |  | 32 | > 10000 |  |
| O=C1N(Cc2ccccc2)[C@H](Cc2ccc3ccccc3c2)[C@H](O)[C@@H](O)[C@@H](Cc2ccc3ccccc3c2)N1Cc1ccccc1 |  | 9.8 | 3300 | 340 |
| O=C1N(Cc2ccccc2)[C@H](Cc2ccoc2)[C@H](O)[C@@H](O)[C@@H](Cc2ccoc2)N1Cc1ccccc1 |  | 8.4 | 7800 | 920 |
| C[C@@H]1[C@H](O)[C@@H](O)[C@@H](C)N(Cc2ccccc2)C(=O)N1Cc1ccccc1 |  | 5000 | > 10000 |  |
| O=C1N(CC2CC2)[C@H](Cc2ccc3ccccc3c2)[C@H](O)[C@@H](O)[C@@H](Cc2ccc3ccccc3c2)N1CC1CC1 |  | 4.3 | 3400 | 790 |
| O=C1N(Cc2ccccc2)[C@H](Cc2ccncc2)[C@H](O)[C@@H](O)[C@@H](Cc2ccncc2)N1Cc1ccccc1 |  | 22 | 5700 |  |
| Nc1cccc(C[C@@H]2[C@H](O)[C@@H](O)[C@@H](Cc3cccc(N)c3)N(Cc3ccccc3)C(=O)N2Cc2ccccc2)c1 |  | 2.8 | 1300 | 460 |

| Structure (SMILES) | IC90 [1] [nM] | Ki [2] [nM] | IC90 [1, 4] [nM] | Ratio [3] |
| --- | --- | --- | --- | --- |
| CSc1ccc(C[C@@H]2[C@H](O)[C@@H](O)[C@@H](Cc3ccc(SC)cc3)N(Cc3ccccc3)C(=O)N2Cc2ccccc2)cc1 |  | 3.4 | 1300 | 380 |
| O=C1N(Cc2ccc(CO)cc2)[C@H](Cc2ccncc2)[C@H](O)[C@@H](O)[C@@H](Cc2ccncc2)N1Cc1ccc(CO)cc1 |  | 4.8 | > 10000 |  |
| COc1cc(C[C@@H]2[C@H](O)[C@@H](O)[C@@H](Cc3cc(OC)cc(OC)c3)N(CC3CC3)C(=O)N2CC2CC2)cc(OC)c1 |  | 2.7 | 380 | 140 |
| O=C1N(CC2CC2)[C@H](Cc2ccc(F)cc2)[C@H](O)[C@@H](O)[C@@H](Cc2ccc(F)cc2)N1CC1CC1 |  | 5.8 | 3200 | 550 |
| COc1ccc(C[C@@H]2[C@H](O)[C@@H](O)[C@@H](Cc3ccc(OC)cc3)N(Cc3ccc(CO)cc3)C(=O)N2Cc2ccc(CO)cc2)cc1 |  | 0.24 | 56 | 230 |
| CN(C)c1cccc(C[C@@H]2[C@H](O)[C@@H](O)[C@@H](Cc3cccc(N(C)C)c3)N(Cc3ccccc3)C(=O)N2Cc2ccccc2)c1 |  | 4.3 | 1200 | 280 |
| O=C1N(CC2CC2)[C@H](Cc2cccc(O)c2)[C@H](O)[C@@H](O)[C@@H](Cc2cccc(O)c2)N1CC1CC1 |  | 13 | 2570 | 200 |
| CC(C)[C@@H]1[C@H](O)[C@@H](O)[C@@H](C(C)C)N(CC2CC2)C(=O)N1CC1CC1 |  |  | > 10000 |  |
| COc1ccc(C[C@@H]2[C@H](O)[C@@H](O)[C@@H](Cc3ccc(OC)cc3)N(CC3CC3)C(=O)N2CC2CC2)cc1 |  | 2.9 | 320 | 110 |
| O=C1N(Cc2ccccc2)[C@H](CC2CCCCC2)[C@H](O)[C@@H](O)[C@@H](CC2CCCCC2)N1Cc1ccccc1 |  | 28 | > 10000 |  |
| COc1cccc(C[C@@H]2[C@H](O)[C@@H](O)[C@@H](Cc3cccc(OC)c3)N(Cc3ccc(CO)cc3)C(=O)N2Cc2ccc(CO)cc2)c1 |  | 0.11 | 37 | 340 |
| CSc1cccc(C[C@@H]2[C@H](O)[C@@H](O)[C@@H](Cc3cccc(SC)c3)N(Cc3ccccc3)C(=O)N2Cc2ccccc2)c1 |  | 2.5 | 4170 | 1700 |
| CS(=O)(=O)c1ccc(C[C@@H]2[C@H](O)[C@@H](O)[C@@H](Cc3ccc(S(C)(=O)=O)cc3)N(Cc3ccccc3)C(=O)N2Cc2ccccc2)cc1 |  | 2.5 | 470 | 190 |
| COc1ccc(C[C@@H]2[C@H](O)[C@@H](O)[C@@H](Cc3ccc(OC)cc3)N(Cc3ccccc3)C(=O)N2Cc2ccccc2)cc1 |  | 8.6 | 600 | 70 |
| COc1cccc(C[C@@H]2[C@H](O)[C@@H](O)[C@@H](Cc3cccc(OC)c3)N(Cc3ccccc3)C(=O)N2Cc2ccccc2)c1 |  | 4.7 | 350 | 75 |
| CN(C)c1ccc(C[C@@H]2[C@H](O)[C@@H](O)[C@@H](Cc3ccc(N(C)C)cc3)N(Cc3ccccc3)C(=O)N2Cc2ccccc2)cc1 |  | 46 | 2700 | 60 |
| O=C1N(CC2CC2)[C@H](Cc2cccs2)[C@H](O)[C@@H](O)[C@@H](Cc2cccs2)N1CC1CC1 |  | 9.1 | 7800 | 860 |
| O=C1N(Cc2ccc(CO)cc2)[C@H](Cc2ccc(F)cc2)[C@H](O)[C@@H](O)[C@@H](Cc2ccc(F)cc2)N1Cc1ccc(CO)cc1 |  | 0.44 | 100 | 230 |
| Cc1ccc(C)n1-c1cccc(C[C@@H]2[C@H](O)[C@@H](O)[C@@H](Cc3cccc(-n4c(C)ccc4C)c3)N(Cc3ccccc3)C(=O)N2Cc2ccccc2)c1 |  | 160 | > 10000 |  |
| CC(C)C[C@@H]1[C@H](O)[C@@H](O)[C@@H](CC(C)C)N(Cc2ccccc2)C(=O)N1Cc1ccccc1 |  | 1700 | > 10000 |  |
| COc1ccccc1C[C@@H]1[C@H](O)[C@@H](O)[C@@H](Cc2ccccc2OC)N(CC2CC2)C(=O)N1CC1CC1 |  | 65 | > 10000 |  |
| CSCC[C@@H]1[C@H](O)[C@@H](O)[C@@H](CCSC)N(CC2CC2)C(=O)N1CC1CC1 |  |  | > 10000 |  |
| CC(C)c1ccc(C[C@@H]2[C@H](O)[C@@H](O)[C@@H](Cc3ccc(C(C)C)cc3)N(Cc3ccccc3)C(=O)N2Cc2ccccc2)cc1 |  | 1.1 | > 10000 |  |
